Assay results as given in patent US20260132165A1, “MODIFIED NUCLEOSIDE ANALOGUE AND USE THEREOF, AND NUCLEOSIDE ANALOGUE-CONTAINING DOUBLE-STRANDED OLIGONUCLEOTIDE AND USE THEREOF” (RIGERNA THERAPEUTICS (BEIJING) CO., LTD., priority 2023, published 2026).

Legend:
[1] = test system: target gene SOD1; assay: Test Example 8: inhibitory activity on target gene SOD1 in adipose tissues in different parts of mice; type: in vivo, C57BL/6j mice; settings: tail vein injection 5 mg/kg, D14
Protocol: (§1) RNA extraction: the above tissue samples were taken out from the RNAlater, and smashed for 60 s in Tissuelyser type II full-automatic tissue homogenizer, and total RNAs of various tissue samples were extracted using the full-automatic nucleic acid extraction instrument and the nucleic acid extraction kit from Zhejiang Hanwei Science and Technology Co. Ltd. according to methods described in instructions.
(§2) Reverse transcription reaction: 1 μg of the extracted total RNAs of the tissue samples were taken, and configured into 20 μL of reverse transcription system according to a method described in kit instructions by using a reverse transcription kit (Reverse Transcription System, A3500) from Promega Corporation and selecting Oligo (dT)15 reverse transcription primers, and the reverse transcription reaction was completed. After the reaction was ended, 80 μL of RNase-Free water was added into the reverse transcription system to provide cDNA solution for Real-time PCR detection.
(§3) Real-time PCR detection: 20 μL of Real-time PCR reaction system per PCR detection well was configured according to a method described in kit instructions using SYBR™ Select Master Mix (Catalog number: 4472908) reagent from ABI company. Each detection system contained 5 μL of cDNA template obtained from the above reverse transcription reaction, 10 μL of SYBR™ Select Master Mix, 0.5 μL of 10 μM upstream primers, 0.5 μL of 10 μM downstream primers, and 4 μL of RNase-Free H2O. The configured reaction system was subjected to Real-time PCR amplification on ABI StepOnePlus PCR instrument by a three-step method, wherein an amplification procedure was pre-denaturation at 95° C. for 10 min, then denaturation at 95° C. for 30 s, annealing at 60° C. for 30 s, and extension at 72° C. for 30 s; and processes of denaturation, annealing, and extension were repeated for 40 cycles. Gene expression differences were calculated by the ΔΔCt method after completion of the procedure.
(§4) In the real-time fluorescence quantitative PCR method, relative quantitative calculation of remaining expression level and inhibition rate of gene mRNA of interest in various test groups was performed by the ΔΔCt method, and the calculation method is as follows:
(§5) The present test example evaluated, by an evaluation method for inhibitory activity on a target gene in mice, the inhibitory activity of siRNA sequence RZ899090 with the sense strand with the NM073 conjugation at Position 4, siRNA sequence RZ899091 with the sense strand with the NM074 conjugation at Position 4, siRNA sequence RZ899078 with the sense strand with the NM202 conjugation at Position 6 and siRNA reference sequence RZ899093 with the sense strand with the Uhd conjugation at Position 4, siRNA reference sequence RZ899076 with the sense strand with the NM200 conjugation at Position 4 on the target gene SOD1 in adipose tissues of interest in mice.
(§6) 6-8 Week-old C57BL/6j mice were randomly grouped by body weight, 5 per group, 6 groups in total. Mice in each group were dosed with the above siRNA conjugates by tail vein injection, with an administration dose of 5 mg/kg per mouse, and an administration volume of 150 μL. PBS control group was administered with the same volume of siRNA conjugate-free PBS solution. The day of administration was recorded as D0, and 5 mice in each group were sacrificed on D14 after administration. Paragonadal fat, abdominal subcutaneous fat, and brown fat on back were respectively taken. RNA extraction, reverse transcription, and real-time fluorescence quantitative detection were performed on various tissues according to the above method, and gene expression differences were calculated by the above ΔΔCt method.

[2] = test system: target gene SOD1; assay: Test Example 7: inhibitory activity of lipid conjugated siRNA sequences on SOD1 in mouse adipose and muscle tissues (tail vein injection); type: in vivo, C57BL/6j mice; settings: tail vein injection 5 mg/kg
Protocol: as §1, §2, §3, §4
as §5, with “Position 4, and siRNA reference” for “Position 4, siRNA reference”, “gene SOD1 of interest” for “gene SOD1 in adipose tissues of interest”, “in mice. The above conjugation vectors were different in that NM073 was C18 aliphatic chain, NM074 was C20 aliphatic chain, and NM0202 and NM0200 were C22 aliphatic chains.” for “in mice.”
as §6, with “weight, 15” for “weight, 5”, “on D14, D28 and D49” for “on D14”, “administration. Tissues such as paragonadal” for “administration. Paragonadal”, “fat, left hind leg quadriceps muscle, heart, liver,” for “fat, abdominal subcutaneous fat,”, “and kidney” for “and brown fat on back”, “respectively taken and stored in the RNAlater.” for “respectively taken.”

RZ899076: siRNA reference sequence with the sense strand with the NM200 (C22) conjugation at Position 4; SEQ ID NO: 18 / 24 (sense UUUNAAUCCUCACUCUAAA; antisense UUUAGAGUGAGGAUUAAAAUG; NM200 (C22) conjugate at sense position 4; modified_base 1..2 OTHER; 2'-methoxy and 5'-thiophosphate modified nucleotides; modified_base 3 OTHER; 2'-methoxy modified nucleotide; modified_base 4 OTHER; n is the synthetic nucleotide analog NM200 as described in the disclosure.; modified_base 5..6 OTHER; 2'-methoxy modified nucleotides; modified_base 7..10 OTHER; 2'-fluoro modified nucleotides; modified_base 11..19 OTHER; 2'-methoxy modified ; modified_base 1 OTHER; 2'-methoxy and 5'-thiovinylphosphonate modified nucleotide; modified_base 2 OTHER; 2'-fluoro and 5'-thiophosphate modified …) [reference compound]
Subcutaneous fat % Mean value of inhibition rate ([1]; abdominal subcutaneous fat): 76.03%
Brown fat on back % Mean value of inhibition rate ([1]; brown fat on back): 80.80%
Paragonadal fat % Mean value of inhibition rate ([1]; paragonadal fat): 56.52%
D 14 % Mean value of inhibition rate ([2]; mouse adipose tissues (paragonadal fat), D14): 92.23%
D 28 % Mean value of inhibition rate ([2]; mouse adipose tissues (paragonadal fat), D28): 86.10%
D 49 % Mean value of inhibition rate ([2]; mouse adipose tissues (paragonadal fat), D49): 73.36%
D 14 % Mean value of inhibition rate ([2]; mouse heart tissues, D14): 70.04%
D 28 % Mean value of inhibition rate ([2]; mouse heart tissues, D28): 70.45%
D 49 % Mean value of inhibition rate ([2]; mouse heart tissues, D49): 37.03%
Kidney D 14 % Mean value of inhibition rate ([2]; mouse kidney, D14): 9.13%
Kidney D 28 % Mean value of inhibition rate ([2]; mouse kidney, D28): 9.82%
Kidney D 49 % Mean value of inhibition rate ([2]; mouse kidney, D49): 7.06%
Liver D 14 % Mean value of inhibition rate ([2]; mouse liver, D14): 51.15%
Liver D 28 % Mean value of inhibition rate ([2]; mouse liver, D28): 15.46%
Liver D 49 % Mean value of inhibition rate ([2]; mouse liver, D49): −13.46%
D 14 % Mean value of inhibition rate ([2]; mouse skeletal muscle tissues (left hind leg quadriceps muscle), D14): 82.53%
D 28 % Mean value of inhibition rate ([2]; mouse skeletal muscle tissues (left hind leg quadriceps muscle), D28): 81.97%
D 49 % Mean value of inhibition rate ([2]; mouse skeletal muscle tissues (left hind leg quadriceps muscle), D49): 66.88%
